ChEMBL document CHEMBL1137558, “Synthesis and biological evaluation of new 2-arylcarbonyl-3-trifluoromethylquinoxaline 1,4-di-N-oxide derivatives and their reduced analogues” (2007)

Assay: Anticancer activity against nonsmall lung cancer cells
Format: functional
Conditions: Homo sapiens, Cancer cell lines

Row | Compound | GI50 [nM]
1 | O=C(c1ccco1)c1c(C(F)(F)F)[n+]([O-])c2cc(C(F)(F)F)ccc2[n+]1[O-] | 480
2 | O=C(c1cccs1)c1c(C(F)(F)F)[n+]([O-])c2ccc(C(F)(F)F)cc2[n+]1[O-] | 450
3 | O=C(c1cccs1)c1c(C(F)(F)F)[n+]([O-])c2cc(F)c(F)cc2[n+]1[O-] | 830
4 | COc1ccc2c(c1)[n+]([O-])c(C(=O)c1ccco1)c(C(F)(F)F)[n+]2[O-] | 3490
5 | O=C(c1ccc2ccccc2c1)c1c(C(F)(F)F)[n+]([O-])c2cc(C(F)(F)F)ccc2[n+]1[O-] | 1780
6 | O=C(c1ccco1)c1nc2cc(C(F)(F)F)ccc2nc1C(F)(F)F | 81500
7 | O=C(c1cccs1)c1c(C(F)(F)F)[n+]([O-])c2ccccc2[n+]1[O-] | 350
8 | Cc1ccc2c(c1)[n+]([O-])c(C(=O)c1cccs1)c(C(F)(F)F)[n+]2[O-] | 560
9 | Cc1cc2c(cc1C)[n+]([O-])c(C(F)(F)F)c(C(=O)c1cccs1)[n+]2[O-] | 2810

Assay: Anticancer activity against breast cancer cells
Format: functional
Conditions: Homo sapiens, Cancer cell lines

Row | Compound | GI50 [nM]
10 | O=C(c1ccco1)c1c(C(F)(F)F)[n+]([O-])c2cc(C(F)(F)F)ccc2[n+]1[O-] | 480
11 | O=C(c1cccs1)c1c(C(F)(F)F)[n+]([O-])c2ccc(C(F)(F)F)cc2[n+]1[O-] | 500
12 | O=C(c1cccs1)c1c(C(F)(F)F)[n+]([O-])c2cc(F)c(F)cc2[n+]1[O-] | 410
13 | COc1ccc2c(c1)[n+]([O-])c(C(=O)c1ccco1)c(C(F)(F)F)[n+]2[O-] | 2880
14 | O=C(c1ccc2ccccc2c1)c1c(C(F)(F)F)[n+]([O-])c2cc(C(F)(F)F)ccc2[n+]1[O-] | 1670
15 | O=C(c1ccco1)c1nc2cc(C(F)(F)F)ccc2nc1C(F)(F)F | 84000
16 | O=C(c1cccs1)c1c(C(F)(F)F)[n+]([O-])c2ccccc2[n+]1[O-] | 850
17 | Cc1ccc2c(c1)[n+]([O-])c(C(=O)c1cccs1)c(C(F)(F)F)[n+]2[O-] | 760
18 | Cc1cc2c(cc1C)[n+]([O-])c(C(F)(F)F)c(C(=O)c1cccs1)[n+]2[O-] | 3080

Assay: Anticancer activity against melanoma cells
Format: functional
Conditions: Homo sapiens, Melanoma cell

Row | Compound | GI50 [nM]
19 | O=C(c1ccco1)c1c(C(F)(F)F)[n+]([O-])c2cc(C(F)(F)F)ccc2[n+]1[O-] | 860
20 | O=C(c1cccs1)c1c(C(F)(F)F)[n+]([O-])c2ccc(C(F)(F)F)cc2[n+]1[O-] | 900
21 | O=C(c1cccs1)c1c(C(F)(F)F)[n+]([O-])c2cc(F)c(F)cc2[n+]1[O-] | 390
22 | COc1ccc2c(c1)[n+]([O-])c(C(=O)c1ccco1)c(C(F)(F)F)[n+]2[O-] | 3030
23 | O=C(c1ccc2ccccc2c1)c1c(C(F)(F)F)[n+]([O-])c2cc(C(F)(F)F)ccc2[n+]1[O-] | 1480
24 | O=C(c1ccco1)c1nc2cc(C(F)(F)F)ccc2nc1C(F)(F)F | 100000
25 | O=C(c1cccs1)c1c(C(F)(F)F)[n+]([O-])c2ccccc2[n+]1[O-] | 1390
26 | Cc1ccc2c(c1)[n+]([O-])c(C(=O)c1cccs1)c(C(F)(F)F)[n+]2[O-] | 900
27 | Cc1cc2c(cc1C)[n+]([O-])c(C(F)(F)F)c(C(=O)c1cccs1)[n+]2[O-] | 3990

Assay: Anticancer activity against ovarian cancer cells
Format: functional
Conditions: Homo sapiens, Cancer cell lines

Row | Compound | GI50 [nM]
28 | O=C(c1ccco1)c1c(C(F)(F)F)[n+]([O-])c2cc(C(F)(F)F)ccc2[n+]1[O-] | 650
29 | O=C(c1cccs1)c1c(C(F)(F)F)[n+]([O-])c2ccc(C(F)(F)F)cc2[n+]1[O-] | 430
30 | O=C(c1cccs1)c1c(C(F)(F)F)[n+]([O-])c2cc(F)c(F)cc2[n+]1[O-] | 530
31 | COc1ccc2c(c1)[n+]([O-])c(C(=O)c1ccco1)c(C(F)(F)F)[n+]2[O-] | 2510
32 | O=C(c1ccc2ccccc2c1)c1c(C(F)(F)F)[n+]([O-])c2cc(C(F)(F)F)ccc2[n+]1[O-] | 1690
33 | O=C(c1ccco1)c1nc2cc(C(F)(F)F)ccc2nc1C(F)(F)F | 90800
34 | O=C(c1cccs1)c1c(C(F)(F)F)[n+]([O-])c2ccccc2[n+]1[O-] | 750
35 | Cc1ccc2c(c1)[n+]([O-])c(C(=O)c1cccs1)c(C(F)(F)F)[n+]2[O-] | 270
36 | Cc1cc2c(cc1C)[n+]([O-])c(C(F)(F)F)c(C(=O)c1cccs1)[n+]2[O-] | 2340

Assay: Anticancer activity against human NCI60 cells
Format: functional
Conditions: not given

Row | Compound | GI50 [nM] | TGI [nM]
37 | O=C(c1ccco1)c1c(C(F)(F)F)[n+]([O-])c2cc(C(F)(F)F)ccc2[n+]1[O-] | 470 | 1200
38 | O=C(c1cccs1)c1c(C(F)(F)F)[n+]([O-])c2cc(F)c(F)cc2[n+]1[O-] | 370 | 1620
39 | COc1ccc2c(c1)[n+]([O-])c(C(=O)c1ccco1)c(C(F)(F)F)[n+]2[O-] | 2820 | 18600
40 | O=C(c1ccc2ccccc2c1)c1c(C(F)(F)F)[n+]([O-])c2cc(C(F)(F)F)ccc2[n+]1[O-] | 1580 | 3470
41 | O=C(c1ccco1)c1nc2cc(C(F)(F)F)ccc2nc1C(F)(F)F | 87100 | 97700
42 | O=C(c1cccs1)c1c(C(F)(F)F)[n+]([O-])c2ccccc2[n+]1[O-] | 980 | 3890
43 | Cc1ccc2c(c1)[n+]([O-])c(C(=O)c1cccs1)c(C(F)(F)F)[n+]2[O-] | 550 | 5500
44 | Cc1cc2c(cc1C)[n+]([O-])c(C(F)(F)F)c(C(=O)c1cccs1)[n+]2[O-] | 3470 | 17400

Same assay, conditions: read-out: LC50 (the source's name)

Row | Compound | CC50 [nM]
45 | O=C(c1ccco1)c1c(C(F)(F)F)[n+]([O-])c2cc(C(F)(F)F)ccc2[n+]1[O-] | 3890
46 | O=C(c1cccs1)c1c(C(F)(F)F)[n+]([O-])c2ccc(C(F)(F)F)cc2[n+]1[O-] | 5500
47 | O=C(c1cccs1)c1c(C(F)(F)F)[n+]([O-])c2cc(F)c(F)cc2[n+]1[O-] | 9330
48 | COc1ccc2c(c1)[n+]([O-])c(C(=O)c1ccco1)c(C(F)(F)F)[n+]2[O-] | 74100
49 | O=C(c1ccc2ccccc2c1)c1c(C(F)(F)F)[n+]([O-])c2cc(C(F)(F)F)ccc2[n+]1[O-] | 9330
50 | O=C(c1ccco1)c1nc2cc(C(F)(F)F)ccc2nc1C(F)(F)F | > 100000
51 | O=C(c1cccs1)c1c(C(F)(F)F)[n+]([O-])c2ccccc2[n+]1[O-] | 11200
52 | Cc1ccc2c(c1)[n+]([O-])c(C(=O)c1cccs1)c(C(F)(F)F)[n+]2[O-] | 33100
53 | Cc1cc2c(cc1C)[n+]([O-])c(C(F)(F)F)c(C(=O)c1cccs1)[n+]2[O-] | 61700

Assay: Anticancer activity against colon cancer cells
Format: functional
Conditions: Homo sapiens, Cancer cell lines

Row | Compound | GI50 [nM]
54 | O=C(c1ccco1)c1c(C(F)(F)F)[n+]([O-])c2cc(C(F)(F)F)ccc2[n+]1[O-] | 280
55 | O=C(c1cccs1)c1c(C(F)(F)F)[n+]([O-])c2ccc(C(F)(F)F)cc2[n+]1[O-] | 380
56 | O=C(c1cccs1)c1c(C(F)(F)F)[n+]([O-])c2cc(F)c(F)cc2[n+]1[O-] | 270
57 | COc1ccc2c(c1)[n+]([O-])c(C(=O)c1ccco1)c(C(F)(F)F)[n+]2[O-] | 2510
58 | O=C(c1ccc2ccccc2c1)c1c(C(F)(F)F)[n+]([O-])c2cc(C(F)(F)F)ccc2[n+]1[O-] | 1730
59 | O=C(c1ccco1)c1nc2cc(C(F)(F)F)ccc2nc1C(F)(F)F | 100000
60 | O=C(c1cccs1)c1c(C(F)(F)F)[n+]([O-])c2ccccc2[n+]1[O-] | 830
61 | Cc1ccc2c(c1)[n+]([O-])c(C(=O)c1cccs1)c(C(F)(F)F)[n+]2[O-] | 880
62 | Cc1cc2c(cc1C)[n+]([O-])c(C(F)(F)F)c(C(=O)c1cccs1)[n+]2[O-] | 5310

Assay: Anticancer activity against leukemia cells
Format: functional
Conditions: Homo sapiens, Leukemia cell

Row | Compound | GI50 [nM]
63 | O=C(c1ccco1)c1c(C(F)(F)F)[n+]([O-])c2cc(C(F)(F)F)ccc2[n+]1[O-] | 130
64 | O=C(c1cccs1)c1c(C(F)(F)F)[n+]([O-])c2ccc(C(F)(F)F)cc2[n+]1[O-] | 200
65 | O=C(c1cccs1)c1c(C(F)(F)F)[n+]([O-])c2cc(F)c(F)cc2[n+]1[O-] | 50
66 | COc1ccc2c(c1)[n+]([O-])c(C(=O)c1ccco1)c(C(F)(F)F)[n+]2[O-] | 3960
67 | O=C(c1ccc2ccccc2c1)c1c(C(F)(F)F)[n+]([O-])c2cc(C(F)(F)F)ccc2[n+]1[O-] | 1200
68 | O=C(c1ccco1)c1nc2cc(C(F)(F)F)ccc2nc1C(F)(F)F | 54000
69 | O=C(c1cccs1)c1c(C(F)(F)F)[n+]([O-])c2ccccc2[n+]1[O-] | 13900
70 | Cc1ccc2c(c1)[n+]([O-])c(C(=O)c1cccs1)c(C(F)(F)F)[n+]2[O-] | 490
71 | Cc1cc2c(cc1C)[n+]([O-])c(C(F)(F)F)c(C(=O)c1cccs1)[n+]2[O-] | 2710

Assay: Anticancer activity against renal cancer cells
Format: functional
Conditions: Homo sapiens, Cancer cell lines

Row | Compound | GI50 [nM]
72 | O=C(c1ccco1)c1c(C(F)(F)F)[n+]([O-])c2cc(C(F)(F)F)ccc2[n+]1[O-] | 490
73 | O=C(c1cccs1)c1c(C(F)(F)F)[n+]([O-])c2ccc(C(F)(F)F)cc2[n+]1[O-] | 310
74 | O=C(c1cccs1)c1c(C(F)(F)F)[n+]([O-])c2cc(F)c(F)cc2[n+]1[O-] | 500
75 | COc1ccc2c(c1)[n+]([O-])c(C(=O)c1ccco1)c(C(F)(F)F)[n+]2[O-] | 1740
76 | O=C(c1ccc2ccccc2c1)c1c(C(F)(F)F)[n+]([O-])c2cc(C(F)(F)F)ccc2[n+]1[O-] | 1550
77 | O=C(c1ccco1)c1nc2cc(C(F)(F)F)ccc2nc1C(F)(F)F | 100000
78 | O=C(c1cccs1)c1c(C(F)(F)F)[n+]([O-])c2ccccc2[n+]1[O-] | 480
79 | Cc1ccc2c(c1)[n+]([O-])c(C(=O)c1cccs1)c(C(F)(F)F)[n+]2[O-] | 250
80 | Cc1cc2c(cc1C)[n+]([O-])c(C(F)(F)F)c(C(=O)c1cccs1)[n+]2[O-] | 4620

Assay: Anticancer activity against CNS cancer cells
Format: functional
Conditions: Homo sapiens, Cancer cell lines

Row | Compound | GI50 [nM]
81 | O=C(c1ccco1)c1c(C(F)(F)F)[n+]([O-])c2cc(C(F)(F)F)ccc2[n+]1[O-] | 810
82 | O=C(c1cccs1)c1c(C(F)(F)F)[n+]([O-])c2ccc(C(F)(F)F)cc2[n+]1[O-] | 480
83 | O=C(c1cccs1)c1c(C(F)(F)F)[n+]([O-])c2cc(F)c(F)cc2[n+]1[O-] | 440
84 | COc1ccc2c(c1)[n+]([O-])c(C(=O)c1ccco1)c(C(F)(F)F)[n+]2[O-] | 3200
85 | O=C(c1ccc2ccccc2c1)c1c(C(F)(F)F)[n+]([O-])c2cc(C(F)(F)F)ccc2[n+]1[O-] | 1720
86 | O=C(c1ccco1)c1nc2cc(C(F)(F)F)ccc2nc1C(F)(F)F | 75900
87 | O=C(c1cccs1)c1c(C(F)(F)F)[n+]([O-])c2ccccc2[n+]1[O-] | 1450
88 | Cc1ccc2c(c1)[n+]([O-])c(C(=O)c1cccs1)c(C(F)(F)F)[n+]2[O-] | 750
89 | Cc1cc2c(cc1C)[n+]([O-])c(C(F)(F)F)c(C(=O)c1cccs1)[n+]2[O-] | 3050

Assay: Anticancer activity against prostate cancer cells
Format: functional
Conditions: Homo sapiens, Cancer cell lines

Row | Compound | GI50 [nM]
90 | O=C(c1ccco1)c1c(C(F)(F)F)[n+]([O-])c2cc(C(F)(F)F)ccc2[n+]1[O-] | 190
91 | O=C(c1cccs1)c1c(C(F)(F)F)[n+]([O-])c2ccc(C(F)(F)F)cc2[n+]1[O-] | 200
92 | O=C(c1cccs1)c1c(C(F)(F)F)[n+]([O-])c2cc(F)c(F)cc2[n+]1[O-] | 510
93 | COc1ccc2c(c1)[n+]([O-])c(C(=O)c1ccco1)c(C(F)(F)F)[n+]2[O-] | 3160
94 | O=C(c1ccc2ccccc2c1)c1c(C(F)(F)F)[n+]([O-])c2cc(C(F)(F)F)ccc2[n+]1[O-] | 1510
95 | O=C(c1ccco1)c1nc2cc(C(F)(F)F)ccc2nc1C(F)(F)F | 100000
96 | O=C(c1cccs1)c1c(C(F)(F)F)[n+]([O-])c2ccccc2[n+]1[O-] | 400
97 | Cc1ccc2c(c1)[n+]([O-])c(C(=O)c1cccs1)c(C(F)(F)F)[n+]2[O-] | 890
98 | Cc1cc2c(cc1C)[n+]([O-])c(C(F)(F)F)c(C(=O)c1cccs1)[n+]2[O-] | 3890
